Reference: patent US20030040114A1, “SMALL MOLECULE MODULATION OF RIBOZYMES” (Warner-Lambert Company,, priority 1996, published 2003)
Starred links: 1 amine or outer side, 2 acyl side, 3 side chain; linkers in the order of their positions; H or OH if unused. Positions of bridges follow the written chain, without caps; N, C: chain ends. Non-standard residues stand in square brackets, D forms with d. Residues, ends and D or L forms follow the SMILES beside them. *: point of attachment. X1 = NC1=N[C@@H]([C@H](N[*:1])C(=O)[*:2])C[C@H](O)N1; ΔAla(Z-3-ureido) = NC(=O)N/C=C(\N)C(=O)O; β3hOrn = NCCC[C@H](N)CC(=O)*; Dap = NC[C@H](N)C(=O)O

How the values were obtained:
[1] = test system: self-splicing Pneumocystis carinii Group I intron RNA; test: Filtration assay for self-splicing Group I intron (96-well, 32P-GTP incorporation, TCA precipitation); format: biochemical; details: single concentration 20 μM; four repeats; FIG. 6
Procedure: A high-throughput screening assay for self-splicing Group I introns using 96-well format filter plates is disclosed. Nonradioactive, intron-containing precursor RNA is incubated with α-^32P-labeled GTP in the absence or presence of small molecules. During the first step of Group I intron splicing, ^32P-GTP is covalently ligated to the 5′ terminus of the intron. Subsequently, the intron-containing products of both the first (439-nt RNA) and the second (390-nt RNA) steps are radioactively labeled at the 5′-end with ^32P isotopes. Free ^32P-GTP and the longer ^32P-labeled (acid-precipitable) RNA products can be readily separated through trichloroacetic acid precipitation and subsequent filtration through nitrocellulose membrane. The efficiency of inhibition can be followed by measuring the amount of the radioactivity retained on the filter membrane. In the control experiment, the spliced products containing 5′-^32P GMP will retain on the membrane. If the first step (5′-cleavage) is inhibited by a small molecule, incorporation of ^32P-GTP to the precursor RNA will be inhibited and, therefore, a decreased amount of radioactivity will be found on the membrane.
In each well of a 96-well U-bottom microtiter plate, 32 μL of precursor RNA (in self-splicing buffer 50 mM Tris-HCl, pH 7.5, 10 mM (NH4)2SO4, 10 mM MgCl2, 5 mM spermidine, and 5% glycerol) was added with 2 μL of a small organic compound in dimethylsulfoxide (DMSO) and the mixture incubated at room temperature for 5 minutes. […] The filter was allowed to dry and the retained radioactivities were determined using scintillation counting (Wallac Microbeta Counter). […]
Column 1 represents the results of eight repeats of the self-splicing reactions in the absence of any inhibitors while Column 12 represents the data of eight repeats of solution containing ^32P-GTP only. […] The results of a total of 18 plates (a total of 1,440 samples) have been analyzed and the statistical distribution of the inhibitory activities is shown in FIG. 4. […]

[2] = test system: self-splicing Pneumocystis carinii Group I intron RNA; test: Multiple-loading gel electrophoresis assay for self-splicing Group I intron; format: biochemical; details: single concentration 20 μM; four repeats; FIG. 6
Procedure: As another example of a separation method useful in the present invention, a high-throughput gel electrophoresis assay with multiple loading capability is used in studies of self-splicing Group I introns. To be specific, the reaction sample, prepared similarly as described in the filtration assay, was loaded on a denaturing polyacrylamide gel (7 M urea, 6% polyacrylamide) and electrophoresed for 1 hour at room temperature. Due to their lengths, the ^32P-labeled products of the self-splicing introns can be readily distinguished from the ^32P-GTP on a polyacrylamide gel. On a single polyacrylamide gel, usually three or four repetitive loadings of different samples into the same wells at discrete times present no interference between samples. […] After a total of 3 hours of electrophoresis, the desired products are well-resolved in all samples regardless of the time of loading.
Each sample contains the same self-splicing reaction solution as described in the previous section (32 μL of precursor RNA in self-splicing buffer, 2 μL of DMSO or compound, and 6 μL solution of α-^32P-GTP). As described previously, the products of the self-splicing reactions are 5′-end labeled intron-containing 439-nt RNA (from the first step) and 390-nt RNA (from the second step). These large RNA fragments can be readily separated from the starting material, ^32P-GTP. After splicing reactions, a total of 20 samples were loaded on a polyacrylamide gel three times (first loading at time 0, then two more loadings at 1, and 2 hours after the first loading, respectively). […] In this gel electrophoresis assay, for the purpose of quantitation of reaction yields, appropriate ^32P-labeled RNA fragments can be introduced to each sample as an internal standard immediately prior to loading. The gels containing self-splicing products and internal standards separated according to their different mobilities can be dried and quantitated by a phosphor imager (Phosphoimager, Molecular Dynamics). […]

## N=C(N)c1ccc(OCCCCCOc2ccc(C(=N)N)cc2)cc1 [pentamidine]
[1]
  Self-splicing inhibitory effect, filtration assay: either low or modest activity
[2]
  Self-splicing inhibitory effect, gel electrophoresis assay: either low or modest activity

## [H]/N=C(/N)N[C@H]1[C@H](O)[C@@H](O)[C@H](O[C@@H]2O[C@@H](C)[C@](O)(C=O)[C@H]2O[C@@H]2O[C@@H](CO)[C@H](O)[C@@H](O)[C@@H]2NC)[C@@H](N/C(N)=N\[H])[C@@H]1O [streptomycin]
[1]
  Self-splicing inhibitory effect, filtration assay: either low or modest activity
[2]
  Self-splicing inhibitory effect, gel electrophoresis assay: either low or modest activity

## NCCC[C@H](N)CC(=O)N[C@H]1CNC(=O)[C@H]([C@H]2C[C@H](O)NC(N)=N2)NC(=O)/C(=C/NC(N)=O)NC(=O)[C@H](CO)NC(=O)[C@H](CO)NC1=O [viomycin, Viomycin] (β3hOrn-[Dap]SS[ΔAla(Z-3-ureido)][X1]; lactam 1-C)
[1]
  Self-splicing inhibitory effect, filtration assay: either low or modest activity
[2]
  Self-splicing inhibitory effect, gel electrophoresis assay: either low or modest activity
